Where two headings read alike, the source gives them in different places.
How the values were obtained:
AbnU = molecular target: T1, AbnU (Parafrankia colletiae, UniProt A0A1S1R073); experiment: tryptophan fluorescence quenching (W114); format: binding
T1 construct: gene CC117_14200; N-terminal poly-His tag, pET28a(+), codon-optimised synthetic gene, E. coli; dimer

PyrI4 = molecular target: T2, PyrI4 (Streptomyces rugosporus, UniProt K7QVW7, E65A); experiment: LC-SRM of product 3a; format: biochemical; conditions: co-substrate 2
T2 construct: full length, N-terminal poly-His tag, pET28a(+), codon-optimised synthetic gene, E. coli
T2 sequence (K7QVW7 whole entry E65A): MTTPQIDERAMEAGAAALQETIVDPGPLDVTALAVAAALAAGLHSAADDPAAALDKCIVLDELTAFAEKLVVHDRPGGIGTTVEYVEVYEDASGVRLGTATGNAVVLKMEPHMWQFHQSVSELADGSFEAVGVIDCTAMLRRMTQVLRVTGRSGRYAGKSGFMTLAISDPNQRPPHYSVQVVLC

T1 sequence (A0A1S1R073 entry or part of it): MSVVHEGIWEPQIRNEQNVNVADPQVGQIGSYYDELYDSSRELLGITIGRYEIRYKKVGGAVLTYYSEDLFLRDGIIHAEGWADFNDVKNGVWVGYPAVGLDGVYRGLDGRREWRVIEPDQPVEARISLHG

Compound: COC(=O)c1ccc(COC(=O)NC2C=CCCC2C(=O)N(C)C)cc1 (mixture of isomers) [3a]
- Kd (AbnU; read-out: KD): 1010 ± 205 µM

Compound: C=C/C=C/NC(=O)OCc1ccc(C(=O)OC)cc1 [1a, diene 1a]
- LC-SRM of product 3a (PyrI4): Stereoselectivity is further compromised with E65A mutant
- Kd (AbnU; read-out: KD): 729 ± 117 µM

Compound: C=CC(=O)N(C)C [compound 2, N,N-dimethylacrylamide]
- Kd (AbnU): 6320 ± 280 µM

Reference: article PMC9814550, “Exo-selective intermolecular Diels–Alder reaction by PyrI4 and AbnU on non-natural substrates” (Communications Chemistry, 2021)
